Data reported in US20230286973A1, “PROTEIN SECRETION INHIBITORS” (KEZAR LIFE SCIENCES, priority 2020, published 2023).
Several values for one entry are separate records, joined by “and”; a condition that tells them apart may be missing. Equal entries are not always repeated. Where two headings read alike, the source gives them in different places.

Columns and labels:
[1] = tested on: multiple myeloma cell line NCI-H929; experiment: H929 Cell Viability Assay; assay type: cell-based, human; settings: NCI-H929 cells, Celltiter-Glo
Protocol: The human multiple myeloma cell line NCI-H929 was cultured in Advanced RPMI 1640 media (Gibco®) supplemented with 6% fetal bovine serum, 2 mM Glutamine, and 1× Penicillin/Streptomycin. On the day of assay, cells were resuspended in RPMI 1640 media supplemented with 10% fetal bovine serum, 2 mM Glutamine, and 1× Penicillin/Streptomycin and plated in 384-well tissue culture plates and treated with compound dilutions in DMSO/media. Plates were incubated at 37° C., 5% CO2 for 48 hours. After 48 hours, Celltiter-Glo® (Promega) was added to each well and luciferase signal was quantified using Tecan Infinite M1000 Pro for cell viability determination.
(§1) For chemical structures that include one or more stereoisomers, but are illustrated without indicating stereochemistry, the assay data refers to a mixture of stereoisomers.

[2] = tested on: PD1-ss+10aa/Gaussia Luciferase; experiment: Dox-Induced PD1-ss-Gluc Assay; assay type: cell-based; settings: 24 hr Dox induction, 293FRT/TO cells, read-out: 24 hr Dox Inducible PD1ssGluc 293FRT/TO: Mean IC50
How it was run: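 Doxycycline-induced expression of a PD1-ss+10aa/Gaussia luciferase reporter is measured in stable Flp-In 293 T-REx cells. Compound dilutions containing doxycycline are added one day after plating and incubated at 37 °C, 5% CO2. Values for unassigned stereocentres refer to stereoisomer mixtures.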

[3] = Liver Microsome Stability Assay (human); settings: human liver microsomes, with NADPH, 1.0 uM compound
Protocol: (§3) Stability of a compound was assessed in the presence of liver microsomes from various sources—mouse, rat, monkey and human liver microsomes. 1.0 uM compound, 0.4% DMSO in 0.1 M Potassium Phosphate with 1.0 mg/mL liver microsomes, were incubated at 37° C. with or without 1 mM NADPH. The samples were quenched at 0, and 30 minutes.

[4] = tested on: IL-2-FL/Gaussia Luciferase; experiment: Dox Induced IL2-FL-Gluc Assay; assay type: cell-based; settings: for IC50: 24 hr Dox induction, 293FRT/TO cells, read-out: 24 hr Dox Inducible IL2FLGluc 293FRT/TO: Mean IC50; for 24 hr Dox Inducible IL2FLGluc 293FRT/TO: IL2/PD1: ratio of IL2FLGluc IC50 to PD1ssGluc IC50
How it was run: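 Cells are plated one day ahead, then receive compound dilutions in DMSO/media with doxycycline and incubate at 37° C, 5% CO2. They are Flp-In 293 T-REx cells expressing a full-length IL-2 (amino acids 1-153)–Gaussia luciferase fusion under T-REx control.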

[5] = Liver Microsome Stability Assay (monkey); settings: monkey liver microsomes, with NADPH, 1.0 uM compound
Protocol: as §3

[6] = tested on: TNFα-FL/Gaussia Luciferase; experiment: Dox Induced TNFα-FL-Gluc Assay; assay type: cell-based; settings: for IC50: 24 hr Dox induction, 293FRT/TO cells, read-out: 24 hr Dox Inducible TNFaFLGluc 293FRT/TO: Mean IC50; for 24 hr Dox Inducible TNFaFLGluc 293FRT/TO: TNF/PD1: ratio of TNFaFLGluc IC50 to PD1ssGluc IC50
From the text: (§2) Flp-In 293 T-REx™ cells were transfected with pcDNA™5/FRT/TO plasmid inserted with cDNA encoding Gaussia Luciferase fused to the 3′ end of cDNA encoding full length TNFα (amino acids 1-233). Transfected cells were selected for resistance to the selectable markers Hygromycin and Blasticidin to create a stable cell line that contained the TNFα-FL/Gaussia Luciferase cDNA insert whose expression was regulated under the T-REx™ system. The day before assay, cells were trypsinized and plated in 384-well tissue culture plates. The next day, compound dilutions in DMSO/media containing doxycycline were added to the wells and incubated at 37° C., 5% CO2.
as §1

[7] = tested on: HER3-ss+4aa/Gaussia Luciferase; experiment: Dox-Induced Her3-ss-Gluc Assay; assay type: cell-based; settings: 24 hr Dox induction, 293FRT/TO cells, read-out: 24 hr Dox Inducible Her3(ss + 4)Gluc 293FRT/TO: Mean IC50
From the text: as §2, with “HER3 signal sequence plus 4 amino” for “full length TNFα (amino”, “(N-[…]-C) (SEQ ID NO: 2).” for “1-233).”, “HER3-ss+4aa/Gaussia” for “TNFα-FL/Gaussia”
as §1

[8] = tested on: multiple myeloma cell line U266B1; experiment: U266 Cell Viability Assay; assay type: cell-based, human; settings: Homo sapiens, U-266, 48 h, U266B1 cells, Celltiter-Glo
Protocol: The human multiple myeloma cell line U266B1 was cultured in RPMI 1640 media supplemented with 10% fetal bovine serum, 2 mM Glutamine, and 1× Penicillin/Streptomycin. Cells were plated in 384-well tissue culture plates and treated with compound dilutions in DMSO/media. Plates were incubated at 37° C., 5% CO2 for 48 hours. After 48 hours, Celltiter-Glo® (Promega) was added to each well and luciferase signal was quantified using Tecan Infinite M1000 Pro for cell viability determination.
as §1

[9] = Liver Microsome Stability Assay (rat); settings: rat liver microsomes, with NADPH, 1.0 uM compound
Protocol: as §3

[10] = Liver Microsome Stability Assay (mouse); settings: mouse liver microsomes, with NADPH, 1.0 uM compound
Protocol: as §3

[11] = '<=>' given where both are I.A.

| Structure (SMILES) | EC50 ([1]; Homo sapiens, NCI-H929, 48 h) | IC50 [2] | Liver Microsome Stability (Multiple Species): Human - % Remaining after 30 min w/NADPH [3] | IC50 [4] | Liver Microsome Stability (Multiple Species): Monkey - % Remaining after 30 min w/NADPH [5] | IC50 [6] | IC50 [7] | EC50 [8] | Liver Microsome Stability (Multiple Species): Rat - % Remaining after 30 min w/NADPH [9] | Liver Microsome Stability (Multiple Species): Mouse - % Remaining after 30 min w/NADPH [10] | EC50 ([1]; 48 hr) | IC50 ([2]; mean) | IC50 ([4]; mean) | IC50 ([6]; mean) | IC50 ([7]; mean) | 24 hr Dox Inducible IL2FLGluc 293FRT/TO: IL2/PD1 [4] | 24 hr Dox Inducible TNFaFLGluc 293FRT/TO: TNF/PD1 [6] | 24 hr Dox Inducible IL2FLGluc 293FRT/TO: IL2/PD1 [4, 11] | 24 hr Dox Inducible TNFaFLGluc 293FRT/TO: TNF/PD1 [6, 11] |
| --- | --- | --- | --- | --- | --- | --- | --- | --- | --- | --- | --- | --- | --- | --- | --- | --- | --- | --- | --- |
| O=C(Nc1nc([C@H]2CCCN2c2ccc(OC3CCOCC3)cc2)cs1)c1cccn1Cc1ccncc1 [Compound A1, (R)-1-(pyridin-4-ylmethyl)-N-(4-(1-(4-((tetrahydro-2H-pyran-4-yl)oxy)phenyl)pyrrolidin-2-yl)thiazol-2-yl)-1H-pyrrole-2-carboxamide] | 1230 nM | 26.9 nM | 14.3% | 53.8 nM | 6.47% | 369 nM | 58.4 nM | > 25000 nM | 50% | 24.8% |  |  |  |  |  | 2 | 13.7 |  |  |
| CS(=O)(=O)Nc1ccc(N2CCC[C@@H]2c2csc(NC(=O)c3cccn3Cc3ccnc(F)c3)n2)cc1 [Compound A118, (R)-1-((2-fluoropyridin-4-yl)methyl)-N-(4-(1-(4-(methylsulfonamido)phenyl)pyrrolidin-2-yl)thiazol-2-yl)-1H-pyrrole-2-carboxamide] | 1800 nM | 103 nM |  | 129 nM |  | 888 nM | 135 nM | > 25000 nM |  |  |  |  |  |  |  | 1.2 | 8.6 |  |  |
| CNC(=O)Nc1ccc(N2CCC[C@@H]2c2csc(NC(=O)c3cccn3Cc3ccnc(F)c3)n2)cc1 [Compound A119, (R)-1-((2-fluoropyridin-4-yl)methyl)-N-(4-(1-(4-(3-methylureido)phenyl)pyrrolidin-2-yl)thiazol-2-yl)-1H-pyrrole-2-carboxamide] | 133 nM | 1.76 nM |  | 7.35 nM |  | 41.3 nM | 6.31 nM | > 25000 nM |  |  |  |  |  |  |  | 4.2 | 23.5 |  |  |
| CC(C)Oc1ccc(N2CCC[C@@H]2c2csc(NC(=O)c3cccn3Cc3ccnc(F)c3)n2)cc1 [Compound A120, (R)-1-((2-fluoropyridin-4-yl)methyl)-N-(4-(1-(4-isopropoxyphenyl)pyrrolidin-2-yl)thiazol-2-yl)-1H-pyrrole-2-carboxamide] | 831 nM | 24.5 nM |  | 42.6 nM |  | 158 nM | 34.5 nM | > 25000 nM |  |  |  |  |  |  |  | 1.7 | 6.44 |  |  |

The next lines start with results.

| EC50 ([1]; Homo sapiens, NCI-H929, 48 h) | IC50 [2] | Liver Microsome Stability (Multiple Species): Human - % Remaining after 30 min w/NADPH [3] | IC50 [4] | Liver Microsome Stability (Multiple Species): Monkey - % Remaining after 30 min w/NADPH [5] | IC50 [6] | IC50 [7] | EC50 [8] | Liver Microsome Stability (Multiple Species): Rat - % Remaining after 30 min w/NADPH [9] | Liver Microsome Stability (Multiple Species): Mouse - % Remaining after 30 min w/NADPH [10] | EC50 ([1]; 48 hr) | IC50 ([2]; mean) | IC50 ([4]; mean) | IC50 ([6]; mean) | IC50 ([7]; mean) | Structure (SMILES) | 24 hr Dox Inducible IL2FLGluc 293FRT/TO: IL2/PD1 [4] | 24 hr Dox Inducible TNFaFLGluc 293FRT/TO: TNF/PD1 [6] | 24 hr Dox Inducible IL2FLGluc 293FRT/TO: IL2/PD1 [4, 11] | 24 hr Dox Inducible TNFaFLGluc 293FRT/TO: TNF/PD1 [6, 11] |
| --- | --- | --- | --- | --- | --- | --- | --- | --- | --- | --- | --- | --- | --- | --- | --- | --- | --- | --- | --- |
| > 25000 nM | 418 nM |  | > 25000 nM |  | > 25000 nM | > 25000 nM | > 25000 nM |  |  |  |  |  |  |  | CCc1cccc2nc(/C=C/c3csc(NC(=O)c4cccn4Cc4ccnc(F)c4)n3)cn12 [Compound B78, (E)-N-(4-(2-(5-ethylimidazo[1,2-a]pyridin-2-yl)vinyl)thiazol-2-yl)-1-((2-fluoropyridin-4-yl)methyl)-1H-pyrrole-2-carboxamide] | >60 | >59.8 |  |  |
| > 25000 nM | 416 nM |  | 4340 nM |  | > 25000 nM | 3580 nM | > 25000 nM |  |  |  |  |  |  |  | CCc1cccc2nc(/C=C/c3csc(NC(=O)c4cccn4Cc4ccncc4)n3)cn12 [Compound B79, (E)-N-(4-(2-(5-ethylimidazo[1,2-a]pyridin-2-yl)vinyl)thiazol-2-yl)-1-(pyridin-4-ylmethyl)-1H-pyrrole-2-carboxamide] | 10 | >60.1 |  |  |
| 16200 nM | 372 nM |  | 5370 nM |  | 7270 nM | 3140 nM | 19000 nM |  |  |  |  |  |  |  | Cc1cn(C(C)C)nc1/C=C/c1csc(NC(=O)c2cccn2Cc2ccncc2)n1 [Compound B80, (E)-N-(4-(2-(1-isopropyl-4-methyl-1H-pyrazol-3-yl)vinyl)thiazol-2-yl)-1-(pyridin-4-ylmethyl)-1H-pyrrole-2-carboxamide] | 14 | 19.5 |  |  |
| 6850 nM | 905 nM | 10.6% and 16.9% | 2170 nM | 5.77% and 6.74% | 1670 nM | 2020 nM | 19100 nM |  | 50.1% and 71.4% |  |  |  |  |  | Cc1cnn(C(C)C)c1/C=C/c1csc(NC(=O)c2cccn2Cc2ccnc(F)c2)n1 [Compound B84, (E)-1-((2-fluoropyridin-4-yl)methyl)-N-(4-(2-(1-isopropyl-4-methyl-1H-pyrazol-5-yl)vinyl)thiazol-2-yl)-1H-pyrrole-2-carboxamide] | 2.4 | 1.84 |  |  |
| > 23800 nM |  | 8.71% and 7.07% |  | 2.55% and 1.11% |  |  | > 25000 nM | 3.87% and 7.05% |  | 20300 nM | 2400 nM and 1590 nM | 4510 nM and 3480 nM | > 25000 nM and 17900 nM | 2410 nM and 2480 nM | CO[C@H](CC#N)Cn1cccc1C(=O)Nc1nc([C@H]2CCCN2c2ccccc2)cs1 [Compound C108, 1-((R)-3-cyano-2-methoxypropyl)-N-(4-((R)-1-phenylpyrrolidin-2-yl)thiazol-2-yl)-1H-pyrrole-2-carboxamide] |  |  | 1.9 and 2.2 | > 10.4 and 11.3 |
| > 25000 nM |  | 26.7% |  | 7.34% |  |  | > 25000 nM | 1.33% | 8.68% |  | 8240 nM | > 25000 nM |  |  | O=C(Nc1nc([C@H]2CCCN2c2ccccc2)cs1)c1ccc[nH]1 [Compound E58, (R)-N-(4-(1-phenylpyrrolidin-2-yl)thiazol-2-yl)-1H-pyrrole-2-carboxamide] |  |  | >3.0 |  |
